According to PMC3199943, “Screening the MayBridge Rule of 3 Fragment Library for Compounds That Interact with the Trypanosoma brucei myo-Inositol-3-Phosphate Synthase and/or Show Trypanocidal Activity” (Molecular Biology International, 2011):
Where two headings read alike, the source gives them in different places.

Assays:
HeLa cells = assay: cells; details: for viability at 500 µM: 65 h; for HeLa Cells Alamar Blue: Supplementary Table 1
Method: (§1) Cytotoxic effects against HeLa and A549 cells were determined in a similar manner. Briefly, the cells were cultured in DMEM supplemented with 10% FCS and 2 mM L-Glutamine. Cells were plated at initial cell concentration of 2 × 10^4 cells/well and incubated with the compounds for ~65 hours prior to addition of Alamar Blue solution for a further 5 hours.

A549 cells = assay: Cytotoxicity against A549 cells, Alamar Blue; assay type: cell-based; details: Supplementary Table 1, compound 0.5 mM, percentage of controls (n=1); for viability at 500 µM: Homo sapiens, A549, 65 h
Method: as §1

[1] = Homo sapiens, HeLa, read-out: HeLa Cells Alamar Blue
[2] = compound 0.5 mM, percentage of controls, mean ± SD (n=3) or SE (n=2)
[3] = Homo sapiens, HeLa, read-out: HeLa Cells Alamar Blue, Supplementary Table 1, compound 0.5 mM, percentage of controls, mean ± SD (n=3) or SE (n=2)

Structure (SMILES) | viability at 500 µM (HeLa cells; [1]) [%] | viability at 500 µM (A549 cells) [%] | further results
CC(=O)Nc1ccc(Cl)cc1C [compound 473, 4‐chloro‐2‐methylacetanilide] | 109 ± 11.9 | 76.1 | 
OCc1ccc(-c2cccnc2)cc1 [compound 489, (4‐pyrid‐3‐ylphenyl)methanol] | 66.4 ± 18.8 | 131 | 
OCc1ccc2c(c1)OCCCO2 [compound 453, 3,4‐dihydro‐2H‐1,5‐benzodioxepin‐7‐ylmethanol] |  |  | HeLa Cells Alamar Blue (HeLa cells; [2]): 86.6 ± 3.2 percentage of controls; A549 Cells Alamar Blue (A549 cells): 51.6 percentage of controls
Nc1cccc(OC(F)(F)F)c1 [compound 419, 3‐(trifluoromethoxy)aniline] | 105 ± 11.1 | 85 | 
CCc1nc(C)c[nH]1 [compound 25, 2‐ethyl‐4‐methyl‐1H‐imidazole] | 98 ± 7.8 | 83.9 | 
Cn1nc(O)cc1C(F)(F)F [compound 316, 1‐methyl‐5‐(trifluoromethyl)‐1H‐pyrazol‐3‐ol] |  |  | HeLa Cells Alamar Blue (HeLa cells; [2]): 111.8 ± 17.2 percentage of controls; A549 Cells Alamar Blue (A549 cells): 95.3 percentage of controls
CC(C)(C)c1cccc(N)c1 [compound 179, 3‐(tert‐butyl)aniline] | 99.3 ± 14.7 | 77.9 | 
Nc1ccc(Oc2ccccc2)nc1 [compound 507, 6‐phenoxy‐3‐pyridinamine] | 103 ± 15.4 | 71.8 | 
Oc1ccccc1N1CCOCC1 [compound 448, 2‐morpholinophenol] | 93.3 ± 6.7 | 71.1 | 
OCc1ccc(-c2ccccn2)cc1 [compound 490, (4‐pyrid‐2‐ylphenyl)methanol] | 102 ± 13.5 | 118 | 
Cn1ccc2cc(N)ccc21 [compound 158, 1‐methyl‐1H‐indol‐5‐amine] | 12.5 ± 9.1 | 59.3 | 
Nc1nc(-c2ccc(O)cc2)cs1 [compound 565, 4‐(2‐amino‐1,3‐thiazol‐4‐yl)phenol] |  | 61.6 | viability at 500 µM (HeLa cells; [3]): 57.7 ± 17.7%
OCc1ccc(C(F)(F)F)o1 [compound 314, [5‐(trifluoromethyl)‐2‐furyl]methanol] | 114 ± 8.2 | 76.9 | 
OCc1cccc(Cn2ccnc2)c1 [compound 527, [3‐(1H‐imidazol‐1‐ylmethyl)phenyl]methanol] |  |  | HeLa Cells Alamar Blue (HeLa cells; [2]): 80.7 ± 17.6 percentage of controls; A549 Cells Alamar Blue (A549 cells): 69.2 percentage of controls
OCc1cc2ccccc2o1 [compound 167, 1‐benzofuran‐2‐ylmethanol] | 84.9 ± 19.3 | 78.2 | 
OCC1Cc2ccccc2O1 (stereo not shown) [compound 187, 2,3‐dihydro‐1‐benzofuran‐2‐ylmethanol] | 94.3 ± 13.3 | 50.5 | 
N#Cc1ccc(N2CCNCC2)cc1 [compound 518, 4‐Piperazin‐1‐yl‐benzonitrile] | 92.1 ± 11 | 84.7 | 
Oc1ccc(Oc2ccccc2)cc1 [compound 502, 4‐phenoxyphenol] |  | 53.1 | viability at 500 µM (HeLa cells; [3]): 39.6 ± 16.6%
CNCc1ccc(OC)cc1 [compound 199, N‐(4‐methoxybenzyl)‐N‐methylamine] | 95.1 ± 15.3 | 71 | 
Cc1cc(C(F)(F)F)c(C#N)cn1 [compound 498, 6‐methyl‐4‐(trifluoromethyl)nicotinonitrile] |  |  | HeLa Cells Alamar Blue (HeLa cells; [2]): 102.9 ± 18.5 percentage of controls; A549 Cells Alamar Blue (A549 cells): 107.7 percentage of controls
O=C(O)Cc1ccc(F)cc1 [compound 219, 2‐(4‐fluorophenyl)acetic acid] | 94.3 ± 13.4 | 98.4 | 
NCc1ccc(F)cc1 [compound 71, 4‐fluorobenzylamine] | 93.3 ± 10.3 | 110 | 
Oc1ncnc2cccc(F)c12 [compound 296, 5‐fluoroquinazolin‐4‐ol] |  | 63.7 | viability at 500 µM (HeLa cells; [3]): 92.7 ± 1.9%
O=C(O)c1ccc(-n2cccc2)cc1 [compound 512, 4‐(1H‐pyrrol‐1‐yl)benzoic acid] | 97.5 ± 13.1 | 63.2 | 
Cc1cc(CN)no1 [compound 33, (5‐methyl‐3‐isoxazolyl)methylamine] | 64.3 ± 18.4 | 75.6 | 
CCCCCSc1nnc[nH]1 [compound 357, 3‐(pentylthio)‐4H‐1,2,4‐triazole] | 64.5 ± 8.6 | 45.3 | 
COC(=O)c1ccc(N)c(C)c1 [compound 304, methyl 4‐amino‐3‐methylbenzoate] | 100 ± 8.9 | 63.4 | 

Structure (SMILES) | viability at 500 µM (HeLa cells; [1]) [%] | viability at 500 µM (A549 cells) [%] | further results
O=C(O)c1csc2ccccc12 [compound 432, 1‐benzothiophene‐3‐carboxylic acid] | 88.5 ± 12.2 | 55.1 | 
Nc1ccccc1-c1cccnc1 [compound 348, 2‐pyridin‐3‐ylaniline] | 18.2 ± 10 | 85.3 | CC50 (HeLa cells; Homo sapiens, HeLa, read-out: HeLa ED50): 21.8 ± 1.8 µM
OCc1ccc(Cn2ccnc2)cc1 [compound 528, [4‐(1H‐imidazol‐1‐ylmethyl)phenyl]methanol] |  |  | HeLa Cells Alamar Blue (HeLa cells; [2]): 90.8 ± 4.5 percentage of controls; A549 Cells Alamar Blue (A549 cells): 81.2 percentage of controls
CC(=O)c1cccc(F)c1 [compound 125, 1‐(3‐fluorophenyl)ethan‐1‐one] | 83 ± 14.8 | 101 | 
Oc1cccc(N2CCOCC2)c1 [compound 447, 3‐morpholinophenol] | 77.8 ± 11.8 | 62.8 | 
Cn1nc(CO)cc1-c1ccccc1 [compound 525, (1‐methyl‐5‐phenyl‐1H‐pyrazol‐3‐yl)methanol] |  |  | HeLa Cells Alamar Blue (HeLa cells; [2]): 64.8 ± 9.8 percentage of controls; A549 Cells Alamar Blue (A549 cells): 64.6 percentage of controls
COC(=O)c1ccccc1F [compound 220, methyl 2‐fluorobenzoate] | 108 ± 17.6 | 99.5 | 
CC(C)(C)C(=O)Nc1ccncc1 [compound 439, 2,2‐dimethyl‐N‐(4‐pyridinyl)propanamide] | 54.6 ± 4.5 | 65 | 
N#CN1CCCC1 [compound 3, pyrrolidine‐1‐carbonitrile] | 88.5 ± 1.3 | 115 | 
Cc1ccc2oc(=O)ccc2c1 [compound 265, 6‐methyl‐2H‐chromen‐2‐one] | 95.8 ± 17.2 | 63.8 | 
OCc1cc(-c2cccs2)[nH]n1 [compound 459, (5‐thien‐2‐yl‐1H‐pyrazol‐3‐yl)methanol] | 27.8 ± 10.9 | 85 | 
Cn1ncc(CO)c1-c1ccccc1 [compound 530, (1‐methyl‐5‐phenyl‐1H‐pyrazol‐4‐yl)methanol] |  |  | HeLa Cells Alamar Blue (HeLa cells; [2]): 87.4 ± 6.2 percentage of controls; A549 Cells Alamar Blue (A549 cells): 109.5 percentage of controls
NCc1ccc(CN2CCCCC2)cc1 [compound 658, [4‐(piperidinomethyl)phenyl]methylamine] |  |  | HeLa Cells Alamar Blue (HeLa cells; [2]): 22.8 ± 5.5 percentage of controls; A549 Cells Alamar Blue (A549 cells): 123.5 percentage of controls
CNCc1scc2c1OCCO2 [compound 495, N‐(2,3‐dihydrothieno[3,4‐b][1,4]dioxin‐5‐ylmethyl)‐N‐methylamine] |  |  | HeLa Cells Alamar Blue (HeLa cells; [2]): 43.6 ± 17.7 percentage of controls; A549 Cells Alamar Blue (A549 cells): 96.9 percentage of controls
Cc1nn(-c2ccccc2)c(C)c1CO [compound 636, (3,5‐dimethyl‐1‐phenyl‐1H‐pyrazol‐4‐yl)methanol] |  |  | HeLa Cells Alamar Blue (HeLa cells; [2]): 73 ± 13.4 percentage of controls; A549 Cells Alamar Blue (A549 cells): 94.9 percentage of controls
CN(C)CCOc1ccc(C#N)cc1 [compound 542, 4‐[2‐(dimethylamino)ethoxy]benzonitrile] | 91.6 ± 9.5 | 69.7 | 
CC(=O)c1ccc(-n2ccnc2)cc1 [compound 503, 1‐[4‐(1H‐imidazol‐1‐yl)phenyl]‐1‐ethanone] |  |  | HeLa Cells Alamar Blue (HeLa cells; [2]): 69.7 ± 7.3 percentage of controls; A549 Cells Alamar Blue (A549 cells): 94.5 percentage of controls
Cn1nc(CO)c2ccccc21 [compound 286, (1‐methyl‐1H‐indazol‐3‐yl)methanol] | 90.9 ± 3.1 | 73.2 | 
Nc1ccccc1N1CCNCC1 [compound 429, 2‐piperazin‐1‐ylaniline] | 78.5 ± 7.7 | 54.3 | 
CC12CC(=O)CC1(C)CC(=O)C2 (stereo not shown) [compound 324, 3a,6a‐dimethylperhydropentalene‐2,5‐dione] |  |  | HeLa Cells Alamar Blue (HeLa cells; [2]): 103.2 ± 21.9 percentage of controls; A549 Cells Alamar Blue (A549 cells): 94.2 percentage of controls
COC(=O)c1cc2ccsc2[nH]1 [compound 463, methyl 6H‐thieno[2,3‐b]pyrrole‐5‐carboxylate] |  |  | HeLa Cells Alamar Blue (HeLa cells; [2]): 101.3 ± 11 percentage of controls; A549 Cells Alamar Blue (A549 cells): 59.7 percentage of controls
OCc1ccccc1C(F)(F)F [compound 407, [2‐(trifluoromethyl)phenyl]methanol] | 104 ± 13.9 | 90.2 | 
Clc1cn2ccsc2n1 [compound 253, 6‐chloroimidazo[2,1‐b][1,3]thiazole] | 82.1 | 85.1 | 
OCc1ncoc1-c1ccccc1 [compound 397, (5‐phenyl‐1,3‐oxazol‐4‐yl)methanol] | 18.2 ± 7.9 | 56.4 | 
Cc1ccc(CO)cc1C [compound 119, (3,4‐dimethylphenyl)methanol] | 84.7 ± 15.3 | 124 | 
Nc1nc(-c2ccccc2)ns1 [compound 423, 3‐phenyl‐1,2,4‐thiadiazol‐5‐amine] | 82.7 ± 3.9 | 52.7 | 
Oc1nc2ccc(Cl)cc2o1 [compound 342, 6‐chloro‐1,3‐benzoxazol‐2‐ol] | 94.3 ± 6.5 | 73.9 | 
